These results are taken from ChEMBL document CHEMBL1159040, “Synthesis and evaluation of phenylequine for antimalarial activity in vitro and in vivo” (Bioorg Med Chem Lett, 2010).

The test system of data set [1] is Plasmodium falciparum. Kind of data set: Antiplasmodial activity against chloroquine-sensitive Plasmodium falciparum D10 infected in human O+ RBC by parasite LDH assay. Type of data set: functional, organism-based.
Data set [2] has as its system Plasmodium falciparum. Kind of data set: Antiplasmodial activity against chloroquine-resistant Plasmodium falciparum K1 infected in human O+ erythrocytes by parasite LDH assay. The class given is functional, organism-based.
For a further data set, the system named is KB. Kind of data set: Cytotoxicity against human KB cells. Type of data set: cell-based.
The subject of data set [3] is Plasmodium berghei. Kind of data set: Antiplasmodial activity in chloroquine-sensitive Plasmodium berghei ANKA infected BALB/c mice (Mus musculus) assessed as mean parasitemia at 10 mg/kg, intraperitoneally daily once for 4 days. The class given is functional. Conditions: route intraperitoneal.
Data set [4] has as its system Plasmodium berghei. Kind of data set: Antiplasmodial activity in chloroquine-sensitive Plasmodium berghei ANKA infected BALB/c mice (Mus musculus) assessed as inhibition of parasitemia at 10 mg/kg, intraperitoneally daily once for 4 days. The class given is functional. Conditions: ip, 96 h, route intraperitoneal.
The subject of data set [5] is Plasmodium yoelii. In words: Antiplasmodial activity in chloroquine-nonsensitive Plasmodium yoelii infected BALB/c mice (Mus musculus) assessed as inhibition of parasitaemia at 10 mg/kg, intraperitoneally daily once for 4 days. The class given is functional. To be noted: ip, 96 h, route intraperitoneal.
Data set [6] has as its system Plasmodium yoelii. In words: Antiplasmodial activity in chloroquine-nonsensitive Plasmodium yoelii infected BALB/c mice (Mus musculus) assessed as inhibition of parasitaemia at 3 mg/kg, intraperitoneally daily once for 4 days. Conditions: route intraperitoneal. Type of data set: functional.
Data set [7] deals with Plasmodium yoelii. Kind of data set: Antiplasmodial activity in chloroquine-nonsensitive Plasmodium yoelii infected BALB/c mice (Mus musculus) assessed as inhibition of parasitaemia at 1 mg/kg, intraperitoneally daily once for 4 days. Type of data set: functional. To be noted: ip, 96 h, route intraperitoneal.
For data set [8], the system named is Plasmodium yoelii. Kind of data set: Antiplasmodial activity in chloroquine-nonsensitive Plasmodium yoelii infected BALB/c mice (Mus musculus) assessed as inhibition of parasitaemia at 30 mg/kg, intraperitoneally daily once for 4 days. Type of data set: functional. To be noted: route intraperitoneal.
Data set [9] has as its system Plasmodium berghei. In words: Antiplasmodial activity in chloroquine-sensitive Plasmodium berghei ANKA infected BALB/c mice (Mus musculus) assessed as mean parasitemia at 30 mg/kg, intraperitoneally daily once for 4 days. Conditions: route intraperitoneal. The class given is functional.
Data set [10] deals with Plasmodium berghei. Kind of data set: Antiplasmodial activity in chloroquine-sensitive Plasmodium berghei ANKA infected BALB/c mice (Mus musculus) assessed as inhibition of parasitemia at 30 mg/kg, intraperitoneally daily once for 4 days. Type of data set: functional. Conditions: route intraperitoneal.

The structures appear in SMILES notation.

A word on the IC50: it is the concentration that inhibits the measured activity by half. Higher therefore signals weaker potency. Consider `CN(C)Cc1ccccc1CNc1ccnc2ccccc12`, for which the IC50 worked out at 0.106 µM in the data set on Plasmodium falciparum [1] and 0.0703 µM in the data set on Plasmodium falciparum [2]. Moreover, in the data set on KB, the Activity amounted to 8.5 µM.
As to `CN(C)Cc1ccccc1CNCCNc1ccnc2cc(Cl)ccc12`, the IC50 with Plasmodium falciparum [1] was found to be 0.0195 µM; with Plasmodium falciparum [2], 0.0098 µM. In the data set on KB, the Activity worked out at 14 µM.
In general, inhibition in vivo refers to the drop in the measured response relative to a control, in per cent. As for `CCN(CC)CCCC(C)Nc1ccnc2cc(Cl)ccc12.O=P(O)(O)O.O=P(O)(O)O` (stereo not drawn) [CHLOROQUINE PHOSPHATE], in the data set with Plasmodium berghei [3], the Activity stood at 0%. The inhibition in vivo at 10 mg/kg turned out to be 100% with Plasmodium berghei [4] and 98.1% in the data set with Plasmodium yoelii [5]. Besides, the inhibition in vivo at 3 mg/kg in the data set on Plasmodium yoelii [6] (Plasmodium yoelii, ip, 96 h) was determined as 32.7%. The inhibition in vivo at 1 mg/kg in the data set with Plasmodium yoelii [7] stood at 32.7%.
In the case of `CN(C)Cc1ccccc1CNc1ccnc2cc(Cl)ccc12.O=C(O)CC(O)(CC(=O)O)C(=O)O` [PHENYLEQUINE DICITRATE], the results for the “inhibition (INH)” value with Plasmodium yoelii [8] and with Plasmodium yoelii [6] were 99.6% and 8.9%, respectively.
Turning to `CN(C)Cc1ccccc1CNc1ccnc2cc(Cl)ccc12.Cl.Cl` [PHENYLEQUINE DIHYDROCHLORIDE], the Activity with Plasmodium berghei [9] is 0%. Moreover, the inhibition in vivo at 30 mg/kg with Plasmodium berghei [10] (Plasmodium berghei, ANKA, ip, 96 h) was 100%; in the data set with Plasmodium yoelii [8] (Plasmodium yoelii, ip, 96 h) it was 99.5%. The inhibition in vivo at 10 mg/kg with Plasmodium yoelii [5] turned out to be 99.7%. Also, the “inhibition (INH)” value in the data set with Plasmodium yoelii [6] was determined as 94.5%.
Regarding `CN(C)Cc1ccccc1CNc1ccnc2cc(Cl)ccc12` [PHENYLEQUINE], the concentration for half-maximal inhibition (IC50) in the data set with Plasmodium falciparum [1] stood at 0.0132 µM; with Plasmodium falciparum [2], 0.0069 µM. The values for the Activity in the data set on KB and in the data set with Plasmodium berghei [9] were 70 µM and 0%, respectively. For the same molecule, the “inhibition (INH)” value in the data set with Plasmodium berghei [10] came out at 100%.
